From patent US20150344540A1, “NOVEL GLP-1 RECEPTOR AGONISTS WITH CHOLESTEROL EFFLUX ACTIVITY” (NOVO NORDISK A/S, priority 2012, published 2015)
Where two headings read alike, the source gives them in different places. Where a SMILES comes first, the peptide text is derived from it. [ ]: non-standard residue; d: D form. Aib = CC(C)(N)C(=O)O

How the values were obtained:
[1] = system: Mouse monocyte/macrophage cell line, RAW 264.7; test: Cholesterol efflux assay (3H-cholesterol, macrophage cell line); type: cell-based; conditions: RAW 264.7, 4 hrs incubation, 0.1% human serum albumin, ABCA1-mediated efflux
human GLP-1 receptor = human GLP-1 receptor (Homo sapiens, UniProt P43220); test: Functional GLP-1 receptor assay, in vitro potency (CRE luciferase; whole cells); type: cell-based; conditions: BHK cells expressing human GLP-1 receptor
[2] = Pharmacokinetics in mini-pigs after i.v. administration; conditions: female, Göttingen, minipig, plasma, iv, 5 nmol/kg; for half-life: T1/2 Mean Value, Göttingen mini-pigs, N=3
Summary of the method: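 Female Göttingen mini-pigs (15-20 kg, N=3) received 5 nmol/kg i.v. via central venous catheter. Plasma levels of N-terminally intact peptide measured by LOCI immunoassay with N-terminal and mid-/C-terminal antibodies; non-compartmental analysis of individual profiles.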

[3] = GLP1R CRE luc 1% HSA EC50 Mean Value, 1% HSA

Chain of human GLP-1 receptor (P43220 24-463): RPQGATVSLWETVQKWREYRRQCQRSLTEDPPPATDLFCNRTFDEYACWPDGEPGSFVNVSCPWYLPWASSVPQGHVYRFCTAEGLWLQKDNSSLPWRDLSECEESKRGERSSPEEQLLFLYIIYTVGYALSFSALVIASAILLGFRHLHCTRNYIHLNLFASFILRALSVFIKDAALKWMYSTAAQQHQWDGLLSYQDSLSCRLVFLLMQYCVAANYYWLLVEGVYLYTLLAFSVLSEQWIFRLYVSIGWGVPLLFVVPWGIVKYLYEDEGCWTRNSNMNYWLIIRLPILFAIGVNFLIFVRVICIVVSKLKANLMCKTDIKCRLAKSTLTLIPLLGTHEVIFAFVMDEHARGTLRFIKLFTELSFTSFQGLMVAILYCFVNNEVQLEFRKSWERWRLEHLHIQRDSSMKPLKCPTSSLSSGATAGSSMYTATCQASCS

## CC[C@H](C)[C@H](NC(=O)[C@H](Cc1ccccc1)NC(=O)[C@H](CCC(=O)O)NC(=O)[C@H](CCCCN)NC(=O)[C@@H](NC(=O)[C@H](CCCCN)NC(=O)[C@H](CCC(=O)O)NC(=O)CNC(=O)[C@H](CCC(=O)O)NC(=O)[C@H](CC(C)C)NC(=O)[C@H](Cc1ccc(O)cc1)NC(=O)[C@H](CO)NC(=O)[C@H](CO)NC(=O)[C@@H](NC(=O)[C@H](CC(=O)O)NC(=O)[C@H](CO)NC(=O)[C@@H](NC(=O)[C@H](Cc1ccccc1)NC(=O)[C@@H](NC(=O)CNC(=O)[C@H](CCC(=O)O)NC(=O)C(C)(C)NC(=O)[C@@H](N)Cc1c[nH]cn1)[C@@H](C)O)[C@@H](C)O)C(C)C)C(C)C)C(=O)N[C@@H](C)C(=O)N[C@@H](Cc1c[nH]c2ccccc12)C(=O)N[C@@H](CC(C)C)C(=O)N[C@H](C(=O)N[C@@H](CCC(=O)O)C(=O)NCC(=O)NC(C)(C)C(=O)N[C@@H](CCCCN)C(=O)N[C@@H](CCC(=O)O)C(=O)N[C@@H](Cc1ccccc1)C(=O)N[C@@H](CC(C)C)C(N)=O)C(C)C [Compound 64, [Aib8,Glu23,Lys24,Val25,Glu34,Aib36,Lys37]-GLP-1-(7-37)-peptidyl-Glu-Phe-Leu amide] (H-H[Aib]EGTFTSDVSSYLEGEKVKEFIAWLVEG[Aib]KEFL-NH2)
[1]
  4 h Cholesterol Efflux Emax: 100%
Human GLP-1 receptor; [3]
  EC50: 0.111 nM
[2]
  C0: 86.9 nM
  Vd: 0.0879 L/kg
  clearance: 2.41 mL/h/kg
  half-life: 25.2 h

## CC[C@H](C)[C@H](NC(=O)[C@H](Cc1ccccc1)NC(=O)[C@H](CCC(=O)O)NC(=O)[C@H](CCCCN)NC(=O)[C@@H](NC(=O)[C@H](C)NC(=O)[C@H](CCC(=O)O)NC(=O)CNC(=O)[C@H](CCC(=O)O)NC(=O)[C@H](CC(C)C)NC(=O)[C@H](Cc1ccc(O)cc1)NC(=O)[C@H](CO)NC(=O)[C@H](CO)NC(=O)[C@@H](NC(=O)[C@H](CC(=O)O)NC(=O)[C@H](CO)NC(=O)[C@@H](NC(=O)[C@H](Cc1ccccc1)NC(=O)[C@@H](NC(=O)CNC(=O)[C@H](CCC(=O)O)NC(=O)C(C)(C)NC(=O)[C@@H](N)Cc1c[nH]cn1)[C@@H](C)O)[C@@H](C)O)C(C)C)C(C)C)C(=O)N[C@@H](CCC(N)=O)C(=O)N[C@@H](Cc1c[nH]cn1)C(=O)N[C@@H](CC(C)C)C(=O)N[C@H](C(=O)N[C@@H](CCC(=O)O)C(=O)N[C@@H](CCCCN)C(=O)N[C@@H](CC(C)C)C(=O)N[C@@H](CCCCN)C(=O)N[C@@H](CCC(=O)O)C(=O)N[C@@H](Cc1ccccc1)C(=O)N[C@@H](CC(C)C)C(N)=O)C(C)C [Compound 87, [Aib8,Glu23,Val25,Gln30,His31,Glu34,Lys35,Leu36,Lys37]-GLP-1-(7-37)-peptidyl-Glu-Phe-Leu amide] (H-H[Aib]EGTFTSDVSSYLEGEAVKEFIQHLVEKLKEFL-NH2)
[1]
  4 h Cholesterol Efflux Emax: 121%
Human GLP-1 receptor; 0% HSA, read-out: GLP1R CRE luc 0% HSA EC50 Mean Value
  EC50: 0.077 nM
Human GLP-1 receptor; [3]
  EC50: 0.025 nM
[2]
  C0: 155 nM
  Vd: 0.0958 L/kg
  clearance: 3.47 mL/h/kg
  half-life: 19 h
